We go through three compounds from patent publication US11660351B2, “Antibody drug conjugates (ADCs) having enzymatically cleavable groups” (Bayer Pharma Aktiengesellschaft, priority 2016, dated 2023).

For one data set, the system named is SK-HEP-1. The experiment in a line: Cytotoxic effect, MTT assay, SK-HEP-1 cells. Type of data set: cell-based. The following applies: Homo sapiens, SK-HEP1; Table 2, metabolites.
The subject of the next data set is NCI-H292. The data set can be described thus: Cytotoxic effect, MTT assay, NCI-H292 cells. Type of data set: cell-based. Particulars: Homo sapiens, Table 2, metabolites.
A further data set has as its system Caco-2 cells. The data set can be described thus: Caco-2 flux assay for cell permeability. Type of data set: in vitro ADME. Particulars: Caco-2, 2 h incubation. How it is done:
The cell permeability of a substance can be investigated by means of in vitro testing in a flux assay using Caco-2 cells [M. D. Troutman and D. R. Thakker, Pharm. […] For this purpose, the cells were cultured for 15-16 days on 24-well filter plates. For the determination of permeation, the respective test substance was applied in a HEPES buffer to the cells either apically (A) or basally (B) and incubated for 2 hours. After 0 hours and after 2 hours, samples were taken from the cis and trans compartments. The samples were separated by HPLC (Agilent 1200, Böblingen, Germany) using reverse phase columns. The HPLC system was coupled via a Turbo Ion Spray Interface to a Triple Quadropole mass spectrometer API 4000 (AB SCIEX Deutschland GmbH, Darmstadt, Germany).
(Caco-2 cells form a polarised layer with tight junctions and transporters.)

The target of the next data set is T1, legumain (Homo sapiens, UniProt Q99538).
T1 construct: purchased R&D Systems 2199-CY
T1 sequence (Q99538 18-323 limits assumed): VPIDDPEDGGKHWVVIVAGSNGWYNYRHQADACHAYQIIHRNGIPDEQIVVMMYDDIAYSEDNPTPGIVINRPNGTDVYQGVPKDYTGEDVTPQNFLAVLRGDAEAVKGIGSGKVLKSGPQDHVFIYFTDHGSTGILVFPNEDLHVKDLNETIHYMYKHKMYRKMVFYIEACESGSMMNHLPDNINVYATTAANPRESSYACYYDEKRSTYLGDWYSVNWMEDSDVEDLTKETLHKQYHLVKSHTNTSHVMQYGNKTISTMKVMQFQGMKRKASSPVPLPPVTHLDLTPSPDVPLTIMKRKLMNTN
The experiment in a line: Legumain assay (enzymatic cleavage). Particulars: recombinant human legumain, rhLegumain 1 ng/μl, substrate 3 μM, pH 5.0, read-out: half-life of legumain-mediated cleavage to the target compound (converted). Type of data set: biochemical. The method, then:
The legumain assay was conducted with recombinant human enzyme. The rhlegumain enzyme solution (catalogue #2199-CY, R&D Systems) was diluted in 50 mM Na acetate buffer/100 mM NaCl, pH 4.0 to the desired concentration and preincubated at 37° C. for 2 h. rhLegumain was then adjusted to a final concentration of 1 ng/μl in 50 mM MES buffer, 250 mM NaCl, pH 5.0. For every legumain-cleavable prodrug to be examined, a mixture was made up in a micro reaction vessel (0.5 ml, from Eppendorf). For this purpose, the substrate solution was adjusted to the desired concentration (double concentration) with 50 mM MES buffer, 250 mM NaCl, pH 5.0. For the kinetic measurement of the enzymatic reaction, 250 μl of the legumain solution were first initially charged and the enzyme reaction was started by adding 250 μl of the substrate solution (final concentration: single concentration; 3 μM). At various points in time, 50 μl samples were taken. Immediately, 100 μl of ice-cold methanol were added to this sample in order to stop the enzymatic reaction, and the sample was then frozen at −20° C. The times selected for sampling were after 0.5 h, 1 h, 3 h and 24 h. The samples were then analysed by means of RP-HPLC analysis and by LC-MS analysis. The determination of the toxophore released enabled the determination of the half-life t1/2 of the enzymatic reaction. […]

Another data set has as its system MOLM-13. The experiment in a line: Cytotoxic effect, MTT assay, MOLM-13 cells. Type of data set: cell-based. The following applies: Homo sapiens, Table 2, metabolites. How it is done:
(§1) After 48 h, the medium was replaced. […] The suspension cells were counted and sown into a 96-well culture plate with white bottom (from Costar #3610) (#3610) (MOLM-13: 2000 cells/well; NB4: 7000 cells/well; MV-4-11: 5000 cells/well in a total volume of 100 μl). After 6 hours of incubation at 37° C. and 5% carbon dioxide, the medium was changed and the antibody-drug conjugates or metabolites were added by pipette in 10 μl of culture medium in concentrations of 10^−5M to 10^−13M to the cells (triplicates) in 90 μl. […] After 96 h, the cell proliferation was detected using the MTT assay (ATCC, Manassas, Va., USA, catalogue No. 30-1010K). To this end, the MTT reagent was incubated with the cells for 4 h, followed by lysis of the cells overnight by addition of the detergent. The dye formed was detected at 570 nm (Infinite M1000 pro, Tecan). The measured data were used to calculate the IC50 of the growth inhibition using the DRC (dose response curve). The proliferation of cells which were not treated with test substance but were otherwise identically treated was defined as the 100% figure.
In general terms: Tetrazolium dyes change colour on reduction, which living cells bring about.

The subject of another data set is KPL-4. The experiment in a line: Cytotoxic effect, MTT assay, KPL-4 cells. Type of data set: cell-based. The following applies: Homo sapiens, KPL4; Table 2, metabolites. The method, then:
as §1, with “μl).” for “μl). After 6 hours of incubation at 37° C. and 5% carbon dioxide, the medium was changed and the antibody-drug conjugates or metabolites were added by pipette in 10 μl of culture medium in concentrations of 10^−5M to 10^−13M to the cells (triplicates) in 90 μl.”

For the compound `CC(C)(C)[C@H](c1cc(-c2cc(F)ccc2F)cn1Cc1ccccc1)N(CC[C@H](N)C(=O)NCCC(=O)N[C@H](CCC(=O)O)C(=O)O)C(=O)CO` [Example M1, N-{(2S)-2-Amino-4-[{(1R)-1-[1-benzyl-4-(2,5-difluorophenyl)-1H-pyrrol-2-yl]-2,2-dimethylpropyl}(glycoloyl)amino]butanoyl}-beta-alanyl-D-glutamic acid], the IC50 in the data set on SK-HEP-1 was determined as 19.6 nM; in the data set on NCI-H292, 174 nM. The “Papp (B-A)” value with Caco-2 cells came out at 0.27 ×10⁻⁶ cm/s.

`CNC(=O)[C@H](CCN(C(=O)CO)[C@@H](c1cc(-c2cc(F)ccc2F)cn1Cc1ccccc1)C(C)(C)C)NC(=O)[C@H](CC(N)=O)NC(=O)[C@H](C)NC(=O)[C@H](C)NC(=O)Cc1ccncc1` [Model compound A, N-(Pyridin-4-ylacetyl)-L-alanyl-L-alanyl-N^1-[(2S)-4-[{(1R)-1-[1-benzyl-4-(2,5-difluorophenyl)-1H-pyrrol-2-yl]-2,2-dimethylpropyl}(glycoloyl)amino]-1-(methylamino)-1-oxobutan-2-yl]-L-aspartamide]: at legumain, the half-life at 3 μM is 24 min.

On to `CC(C)(C)[C@H](c1cc(-c2cc(F)ccc2F)cn1Cc1ccccc1)N(CCCN)C(=O)CO` [Reference Example R3M, N-(3-Aminopropyl)-N-{(1R)-1-[1-benzyl-4-(2,5-difluorophenyl)-1H-pyrrol-2-yl]-2,2-dimethylpropyl}-2-hydroxyacetamide], for which the IC50 in the data set on MOLM-13 was 0.0669 nM; in the data set on SK-HEP-1, 7.62 nM; in the data set on KPL-4, 0.257 nM; in the data set on NCI-H292, 0.27 nM.

By IC50 is commonly meant the concentration that gives 50% inhibition. For orientation: half-life means the time needed for the level to fall by half in the phase considered.
